pIC50: −log10 of the molar value. Where “and” joins values, the source holds several entries; their conditions need not be identical. Equal entries are not always repeated.
Molecular target: wild-type Epidermal Growth Factor Receptor (EGFR) (Homo sapiens (Human), UniProt P00533)
Assay: WT-EGFR Kinase Assay (TR-FRET, 2 mM ATP)
Assay type: biochemical
Details: EGFR Wildtyp 2 mM ATP IC50 [mol/l] (median), median or individual measurements
Text: Inhibitory activity of compounds of the present invention against wild-type Epidermal Growth Factor Receptor (EGFR) was quantified employing the TR-FRET based EGFR assay as described in the following paragraphs.
Recombinant fusion protein of N-terminal Glutathion-S-Transferase (GST) and a fragment of human EGFR (amino acids R669 to A1210), expressed in Sf9 insect cells and purified via affinity chromatography using Glutathion Sepharose as described above, was used as kinase. As substrate for the kinase reaction the biotinylated peptide biotin-Ahx-[…] (C-terminus in amide form) was used which can be purchased e.g. form the company Biosynthan GmbH (Berlin-Buch, Germany).
For the assay 50 nl of a 100 fold concentrated solution of the test compound in DMSO was pipetted into either a black low volume 384 well microtiter plate or a black 1536 well microtiter plate (both Greiner Bio-One, Frickenhausen, Germany), 2 μL of a solution of EGFR in aqueous assay buffer [50 mM Hepes pH 7.0, 10 mM MgCl2, 1 mM dithiothreitol, 0.5 mM EGTA, 0.3 mM activated sodium ortho-vanadate, 0.005% (w/v) bovine serum albumin, 0.005% (v/v) Tween-20] were added and the mixture was incubated for 15 min at 22° C. to allow pre-binding of the test compounds to the enzyme before the start of the kinase reaction. […] The concentration of EGFR was adjusted depending of the activity of the enzyme lot and was chosen appropriate to have the assay in the linear range, typical concentration was […]. The reaction was stopped by the addition of 3 μL of a solution of HTRF detection reagents (83.3 nM streptavidine-XL665 [Cisbio Bioassays, Codolet, France] and 1.67 nM PT66-Tb-Cryptate, a terbium-cryptate labelled anti-phospho-tyrosine antibody from Cisbio Bioassays [instead of the PT66-Tb-cryptate PT66-Eu-Chelate from Perkin Elmer can also be used]) in an aqueous EDTA-solution (133.3 mM EDTA, 0.2% (w/v) bovine serum albumin in 50 mM HEPES pH 7.5).
The resulting mixture was incubated 1 h at 22° C. to allow the binding of the biotinylated phosphorylated peptide to the streptavidine-XL665 and the PT66-Tb-Cryptate. Subsequently the amount of phosphorylated substrate was evaluated by measurement of the resonance energy transfer from the PT66-Tb-Cryptate to the streptavidine-XL665. Therefore, the fluorescence emissions at 620 nm and 665 nm after excitation at 337 nm were measured in a HTRF reader, e.g. a Pherastar (BMG Labtechnologies, Offenburg, Germany) or a Viewlux (Perkin-Elmer). The ratio of the emissions at 665 nm and at 622 nm was taken as the measure for the amount of phosphorylated substrate.

wild-type Epidermal Growth Factor Receptor (EGFR), sequence (P00533 669-1210): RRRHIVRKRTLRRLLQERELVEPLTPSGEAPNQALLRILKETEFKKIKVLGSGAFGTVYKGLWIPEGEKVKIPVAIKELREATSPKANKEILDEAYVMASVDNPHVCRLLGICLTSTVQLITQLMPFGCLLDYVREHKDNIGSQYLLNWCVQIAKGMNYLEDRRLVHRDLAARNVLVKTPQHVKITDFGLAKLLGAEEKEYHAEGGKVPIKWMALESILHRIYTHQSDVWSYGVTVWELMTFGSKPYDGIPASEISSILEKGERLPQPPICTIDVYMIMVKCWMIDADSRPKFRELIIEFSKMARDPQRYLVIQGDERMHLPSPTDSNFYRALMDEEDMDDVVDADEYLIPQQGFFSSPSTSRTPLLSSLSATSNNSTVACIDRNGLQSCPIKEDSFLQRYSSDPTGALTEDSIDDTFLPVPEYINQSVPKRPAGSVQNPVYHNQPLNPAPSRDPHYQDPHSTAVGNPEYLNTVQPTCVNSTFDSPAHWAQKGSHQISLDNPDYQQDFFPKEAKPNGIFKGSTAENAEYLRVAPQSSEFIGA

Structure (SMILES) | pIC50
Cc1cn(C)c(=O)c2c(-c3ccc(F)cc3)c(-c3ccnc(NC(=O)C(CC(F)F)c4ccc(F)cc4)c3)[nH]c12 (racemic) [Example 034, 4,4-difluoro-2-(4-fluorophenyl)-N-{4-[3-(4-fluorophenyl)-5,7-dimethyl-4-oxo-4,5-dihydro-1H-pyrrolo[3,2-c]pyridin-2-yl]pyridin-2-yl}butanamide] | < 4.70
Cc1cn(C)c(=O)c2c(-c3ccc(F)cc3)c(-c3ccnc(NC(=O)C(C)c4ccc(F)cc4)c3)[nH]c12 (single isomer, unassigned; (-)) [Example 031, (-)-2-(4-fluorophenyl)-N-{4-[3-(4-fluorophenyl)-5,7-dimethyl-4-oxo-4,5-dihydro-1H-pyrrolo[3,2-c]pyridin-2-yl]pyridin-2-yl}propanamide] | < 4.70
CC(C(=O)Nc1cc(-c2[nH]c3c(CC(F)(F)F)cn(C)c(=O)c3c2-c2ccc(F)cc2)ccn1)c1ccc(F)cc1 (single isomer, unassigned; (-)) [Example 023, (-)-2-(4-fluorophenyl)-N-{4-[3-(4-fluorophenyl)-5-methyl-4-oxo-7-(2,2,2-trifluoroethyl)-4,5-dihydro-1H-pyrrolo[3,2-c]pyridin-2-yl]pyridin-2-yl}propanamide] | < 4.70
Cc1cn(C)c(=O)c2c(-c3ccccc3)c(-c3ccnc(NC(=O)C(C)c4ccc(F)cc4)c3)[nH]c12 (racemic) [Example 038, N-[4-(5,7-dimethyl-4-oxo-3-phenyl-4,5-dihydro-1H-pyrrolo[3,2-c]pyridin-2-yl)pyridin-2-yl]-2-(4-fluorophenyl)propanamide] | < 4.70
CC(C(=O)Nc1cc(-c2[nH]c3c(CC(F)(F)F)cn(C)c(=O)c3c2-c2ccccc2)ccn1)c1ccc(F)cc1 (single isomer, unassigned; (+)) [Example 015, (+)-2-(4-fluorophenyl)-N-{4-[5-methyl-4-oxo-3-phenyl-7-(2,2,2-trifluoroethyl)-4,5-dihydro-1H-pyrrolo[3,2-c]pyridin-2-yl]pyridin-2-yl}propanamide] | 5.72
Cc1cn(C)c(=O)c2c(-c3ccccc3)c(-c3ccnc(NC(=O)C(CC(F)F)c4ccc(F)cc4)c3)[nH]c12 (racemic) [Example 040, N-[4-(5,7-dimethyl-4-oxo-3-phenyl-4,5-dihydro-1H-pyrrolo[3,2-c]pyridin-2-yl)pyridin-2-yl]-4,4-difluoro-2-(4-fluorophenyl)butanamide] | < 4.70
CC1(C)CNC(=O)c2c1[nH]c(-c1ccnc(NC(=O)C(CC(F)F)c3ccc(F)cc3)c1)c2-c1ccccc1 (single isomer, unassigned) [Example 044, N-[4-(7,7-dimethyl-4-oxo-3-phenyl-4,5,6,7-tetrahydro-1H-pyrrolo[3,2-c]pyridin-2-yl)pyridin-2-yl]-4,4-difluoro-2-(4-fluorophenyl)butanamide] | < 4.70
Cn1cc(CC2CC2)c2[nH]c(-c3ccnc(NC(=O)C(CC(F)F)c4ccc(F)cc4)c3)c(-c3ccccc3)c2c1=O (racemic) [Example 060, N-{4-[7-(cyclopropylmethyl)-5-methyl-4-oxo-3-phenyl-4,5-dihydro-1H-pyrrolo[3,2-c]pyridin-2-yl]pyridin-2-yl}-4,4-difluoro-2-(4-fluorophenyl)butanamide] | < 4.70
CN1CC(CC2CC2)c2[nH]c(-c3ccnc(NC(=O)Cc4ccc(F)cc4)c3)c(-c3ccc(F)cc3)c2C1=O (racemic) [Example 061, N-{4-[7-(cyclopropylmethyl)-3-(4-fluorophenyl)-5-methyl-4-oxo-4,5,6,7-tetrahydro-1H-pyrrolo[3,2-c]pyridin-2-yl]pyridin-2-yl}-2-(4-fluorophenyl)acetamide] | 6.09
CC(C(=O)Nc1cc(-c2[nH]c3c(c2-c2ccccc2)C(=O)N(C)C2(CCC2)C3)ccn1)c1ccc(F)cc1 (racemic) [Example 052, 2-(4-fluorophenyl)-N-[4-(5′-methyl-4′-oxo-3′-phenyl-1′,4′,5′,7′-tetrahydrospiro[cyclobutane-1,6′-pyrrolo[3,2-c]pyridin]-2′-yl)pyridin-2-yl]propanamide] | < 4.70
Cn1ccc2[nH]c(-c3ccnc(NC(=O)C(CC(F)F)c4ccc(F)cc4)c3)c(-c3ccccc3)c2c1=O (single isomer, unassigned) [Example 007, 4,4-difluoro-2-(4-fluorophenyl)-N-[4-(5-methyl-4-oxo-3-phenyl-4,5-dihydro-1H-pyrrolo[3,2-c]pyridin-2-yl)pyridin-2-yl]butanamide] | 4.93 and 4.87
CN1CCc2[nH]c(-c3ccnc(NC(=O)C(CC(F)F)c4ccc(F)cc4)c3)c(-c3ccccc3)c2C1=O (racemic) [Example 002, 4,4-difluoro-2-(4-fluorophenyl)-N-[4-(5-methyl-4-oxo-3-phenyl-4,5,6,7-tetrahydro-1H-pyrrolo[3,2-c]pyridin-2-yl)pyridin-2-yl]butanamide] | < 4.70
CC1(C)CNC(=O)c2c1[nH]c(-c1ccnc(NC(=O)C(CC(F)F)c3ccc(F)cc3)c1)c2-c1ccccc1 (racemic) [Example 043, N-[4-(7,7-dimethyl-4-oxo-3-phenyl-4,5,6,7-tetrahydro-1H-pyrrolo[3,2-c]pyridin-2-yl)pyridin-2-yl]-4,4-difluoro-2-(4-fluorophenyl)butanamide] | < 4.70
CC(C(=O)Nc1cc(-c2[nH]c3c(CC(F)(F)F)cn(C)c(=O)c3c2-c2ccccc2)ccn1)c1ccc(F)cc1 (racemic) [Example 014, 2-(4-fluorophenyl)-N-{4-[5-methyl-4-oxo-3-phenyl-7-(2,2,2-trifluoroethyl)-4,5-dihydro-1H-pyrrolo[3,2-c]pyridin-2-yl]pyridin-2-yl}propanamide] | < 4.70

Same assay, conditions: read-out: EGFR Wildtyp 2 mM ATP IC50 [mol/l] (median), median or individual measurements

Structure (SMILES) | pIC50
CN1CC(CC(F)(F)F)c2[nH]c(-c3ccnc(NC(=O)C(CC(F)F)c4ccc(F)cc4)c3)c(-c3ccccc3)c2C1=O (stereo not drawn) [Example 017] | < 4.70
CC(C(=O)Nc1cc(-c2[nH]c3c(c2-c2ccccc2)C(=O)N(C)CC3CC(F)(F)F)ccn1)c1ccc(F)cc1 (stereo not drawn) [Example 013] | < 4.70
Cc1cn(C)c(=O)c2c(-c3ccc(F)cc3)c(-c3ccnc(NC(=O)C(CC(F)F)c4ccc(F)cc4)c3)[nH]c12 (single isomer, unassigned; (+)) [Example 036, (+)-4,4-difluoro-2-(4-fluorophenyl)-N-{4-[3-(4-fluorophenyl)-5,7-dimethyl-4-oxo-4,5-dihydro-1H-pyrrolo[3,2-c]pyridin-2-yl]pyridin-2-yl}butanamide] | < 4.70
CN1CC(CC2CC2)c2[nH]c(-c3ccnc(NC(=O)C(CC(F)F)c4ccc(F)cc4)c3)c(-c3ccccc3)c2C1=O (stereo not drawn) [Example 059] | < 4.70
CC1(C)CNC(=O)c2c1[nH]c(-c1ccnc(NC(=O)Cc3ccc(F)cc3)c1)c2-c1ccccc1 [Example 042, N-[4-(7,7-dimethyl-4-oxo-3-phenyl-4,5,6,7-tetrahydro-1H-pyrrolo[3,2-c]pyridin-2-yl)pyridin-2-yl]-2-(4-fluorophenyl)acetamide] | 5.25
CN1CCc2[nH]c(-c3ccnc(NC(=O)C(CC(F)F)c4ccc(F)cc4)c3)c(-c3cccnc3)c2C1=O (single isomer, unassigned) [Example 011, 4,4-difluoro-2-(4-fluorophenyl)-N-{4-[5-methyl-4-oxo-3-(pyridin-3-yl)-4,5,6,7-tetrahydro-1H-pyrrolo[3,2-c]pyridin-2-yl]pyridin-2-yl}butanamide] | < 4.70
CC(C(=O)Nc1cc(-c2[nH]c3c(CC(F)(F)F)cn(C)c(=O)c3c2-c2ccc(F)cc2)ccn1)c1ccc(F)cc1 (single isomer, unassigned; (+)) [Example 024, (+)-2-(4-fluorophenyl)-N-{4-[3-(4-fluorophenyl)-5-methyl-4-oxo-7-(2,2,2-trifluoroethyl)-4,5-dihydro-1H-pyrrolo[3,2-c]pyridin-2-yl]pyridin-2-yl}propanamide] | < 4.70
CC1CN(C)C(=O)c2c1[nH]c(-c1ccnc(NC(=O)C(CC(F)F)c3ccc(F)cc3)c1)c2-c1ccccc1 (stereo not drawn) [Example 039] | < 4.70
CC(C(=O)Nc1cc(-c2[nH]c3c(c2-c2ccc(F)cc2)C(=O)N(C)CC3CC(F)(F)F)ccn1)c1ccc(F)cc1 (stereo not drawn) [Example 021] | < 4.70
CC(C(=O)Nc1cc(-c2[nH]c3c(c2-c2ccc(F)cc2)C(=O)N(C)CC3CC2CC2)ccn1)c1ccc(F)cc1 (stereo not drawn) [Example 062] | < 5.24

Source: patent US20230322767A1, “ARYL SUBSTITUTED PYRROLO-PYRIDINONES AND THERAPEUTIC USES THEREOF” (Bayer Aktiengesellschaft, priority 2020, published 2023)
